Legend:
in vitro = in vitro ADME; settings: rat, plasma
Protocol: The process of hydrolysis of the dioxolenylmethyl carbamate of 3,4-dimethoxyphenethylamine was studied by measuring the formation of dimethoxyphenethylamine at 37° C. in neat rat plasma. The reaction was initiated by adding a dimethyl sulfoxide (DMSO) solution of the carbamate to the reaction medium pre-equilibrated at 37° C. in a thermostated water bath. The initial concentrations of the carbamate in rat plasma was 4.3×10^-3 M and the concentration of DMSO was 10%. Samples (100 μL of acetonitrile, vortex mixed for 30 seconds to precipitate the plasma proteins, and centrifuged at 10,000 X g for 5 minutes. The supematants were injected directly and analyxed by HPLC. The HPLC column used was a 10 cm spheri-5 RP-18 column combined with a similar 3 cm guard column. The mobile phase used for the analysis of dimethoxyphenethylamine was 30% v/v of acetonitrile in water containing 0.5 mL/L of 85% phosphoric acid and 0.5 mL/L of triethylamine at a flow rate of 2 mL per minute. The concentration was measured at 280 nm using a variable wave length UV detector. The retention time of dimethoxyphenethylamine under these conditions was 5.8 minutes.

rats = settings: oral administration, Sakamoto, et al, Chem. Pharm. Bull., 1985, 33, 4870; cited from earlier work

Row | half-life at 4300 µM (in vitro) | Structure (SMILES) | regeneration of the parent drug (rats)
1 | 11 min | COc1ccc(CCNC(=O)OCc2oc(=O)oc2C)cc1OC [5'-methyl-2'-oxo-1',3'-dioxol-4'-enyl-4'-methylcarbamoyl-3,4-dimethoxyphenethylamine] | –
2 | – | CCn1cc(C(=O)O)c(=O)c2cc(F)c(N3CCN(Cc4oc(=O)oc4C)CC3)cc21 [alkylated nofloxacin] | regenerated the parent drug

Reference: US5466811A, “Dioxolenylmethyl carbamates pro moieties for amine drugs” (Merck & Co., Inc., priority 1994, dated 1995)
